“Also recorded” adds a separate entry of the source.
Experiments:
BRD4 [1] = target: T1, BRD4 (Homo sapiens, UniProt O60885); experiment: Summary of BRD4 degradation by CURE-PRO pairs, estimated from Western Blot or WES; format: cell-based; parameters: endogenous in cells
Outline: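 Degradation read-out from immunoblot with ECL, or WES capillary electrophoresis with HRP detection, of RIPA lysates. Cells (Namalwa, Ramos, HeLa, MCF7, HT29 or HCT116) were exposed to DMSO-solubilized compounds for 24 h; a check mark marks 30% to 70% or higher degradation.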

SLC19A1 = experiment: RT-PCR of c-MYC downstream target gene SLC19A1 in HeLa cells; format: cell-based, Human; conditions: combined with MDM2 ligand 8312, HeLa, 10 μM each, 24 h
Method: The suppression of the expression of the downstream c-MYC target, SLC19A1, was measured by RT-PCR using Power SYBR® Green Cells-to-Ct™ Kit (Life Technologies). Adherent cells were plated on 96 well plates at 5,000 cells per well were treated for 24 h with monomer compounds and compounds capable of reversible interactions (1 nM-100 μM). Cells were subsequently washed in ice-cold PBS processed according to the manufacturer's instructions. Quantitative real-time PCR was performed using a ViiA™ 7 Real-time PCR System (Applied Biosystems, Foster City, Calif., USA). GAPDH and ACTB served as internal controls.
HeLa cells (1×10^4) were treated for 24 hours in 96 well plates with the compounds solubilized in DMSO. Compounds were added at 10 μM each and RNA expression measured by the Cells-to Ct method described above (Thermofisher).

MV-4-11 cells = experiment: CellTiter-Glo cell viability, MV-4-11 cells; format: cell-based; conditions: co-dosed 1:1 with CRBN ligand 8049, MV-4-11, 24 h, 1 nM-100 μM each
Outline: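 Viability by CellTiter-Glo luminescence. One protocol: 5×10^4 MV-4-11 cells, 24 h, compounds at 1 nM-100 μM each; other: 1×10^4 cells, 72 h, 10 nM-100 μM each. BRD ligands combined 1:1 with CRBN ligands; dose-response curves fitted.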

BRD2 = target: T2, BRD2 (Homo sapiens, UniProt P25440); experiment: BRD protein family degradation in HCT116 cells, Western blot: BRD2; format: cell-based; conditions: 1:1 with MDM2 ligands 8310 and 8312 (each), HCT116, 24 h, 100 nM-10 μM
T2 construct: endogenous in cells; host or cells: HCT116
Method: (§1) Namalwa, Ramosm HeLa, MCF7, or HT29 HCT116 cells (2.5-3×10^6) were treated for 24 hours with the indicated compounds solubilized in DMSO. The cells were washed in ice-cold PBS and were then lysed in RIPA lysis buffer (150 mM NaCl, 5 mM EDTA, 1% NP-40, 0.5% sodium deoxycholate, 0.1% SDS, 50 mM Tris, pH 8.0.) with Roche protease inhibitor complete cocktail and phosphatase inhibitors (10 mM sodium fluoride, 10 mM sodium pyrophosphate, 1 mM sodium orthovanadate and 20 mM β-glycerophosphate). The total protein concentrations were determined by Bradford Protein Assay (Pierce) and 10-20 μg of protein was loaded onto 4-15% Tris-Glycine gradient gels (Biorad). After standard gel electrophoresis, the separated proteins were transferred to PVDF membrane by wet transfer. The immunoblots were then blocked for 1 hour in 5% skim milk in TBST or 5% BSA in TBST, according to manufacturer's instructions, before an overnight incubation at 4° C. with indicated antibodies and membranes. […] Signal was detected with ECL Western Blotting Substrate (Pierce) and X-ray film processed with a Konica SRX-101 X-ray film processor or captured by Bio-Rad's Chemidoc Imaging system. […]

BRD4 [2] = target: T1, BRD4; experiment: BRD protein family degradation in HCT116 cells, Western blot: BRD4; format: cell-based; parameters: endogenous in cells
Method: Namalwa, Ramosm HeLa, MCF7, or HT29 HCT116 cells (2.5-3×10^6) were treated for 24 hours with the indicated compounds solubilized in DMSO. The cells were washed in ice-cold PBS and were then lysed in RIPA lysis buffer (150 mM NaCl, 5 mM EDTA, 1% NP-40, 0.5% sodium deoxycholate, 0.1% SDS, 50 mM Tris, pH 8.0.) with Roche protease inhibitor complete cocktail and phosphatase inhibitors (10 mM sodium fluoride, 10 mM sodium pyrophosphate, 1 mM sodium orthovanadate and 20 mM β-glycerophosphate). The total protein concentrations were determined by Bradford Protein Assay (Pierce) and 10-20 μg of protein was loaded onto 4-15% Tris-Glycine gradient gels (Biorad). After standard gel electrophoresis, the separated proteins were transferred to PVDF membrane by wet transfer. The immunoblots were then blocked for 1 hour in 5% skim milk in TBST or 5% BSA in TBST, according to manufacturer's instructions, before an overnight incubation at 4° C. with indicated antibodies and membranes. Membranes were then incubated with the appropriate horseradish peroxidase-conjugated secondary antibodies (1:5,000 dilution) for 1 h at room temperature and the bands were visualized using the Clarity Max Western ECL Substrate (Biorad) and the ChemiDoc Imaging System (Biorad). Signal was detected with ECL Western Blotting Substrate (Pierce) and X-ray film processed with a Konica SRX-101 X-ray film processor or captured by Bio-Rad's Chemidoc Imaging system.
(§2) HCT116 cells (3×10^6) were treated for 24 hours with the compounds solubilized in DMSO. Compounds were added at 100 nM-10 μM each. Standardized protein samples were electrophoresed and imaged as described in the Immunoblotting section above. FIGS. 64 and 65 depict the concentration-dependence of CURE-PRO-mediated BRD2 and BRD3 degradation using MDM2 ligands.

BRD3 = target: T3, BRD3 (Homo sapiens, UniProt Q15059); experiment: BRD protein family degradation in HCT116 cells, Western blot: BRD3; format: cell-based; conditions: 1:1 with MDM2 ligands 8310 and 8312 (each), HCT116, 24 h, 100 nM-10 μM
T3 construct: endogenous in cells; host or cells: HCT116
Method: as §1

BRD4 [3] = target: T1, BRD4; experiment: CURE-PRO-mediated BRD4 degradation in HCT116 cells, WES (ProteinSimple); format: cell-based; parameters: endogenous in cells; conditions: for BRD4 degradation: 10 μM
Method: All cell lines were purchased from ATCC or DSMZ and grown at 37° C. with 5% CO2. Human HeLa cells were cultured in complete growth medium (Dulbecco's modified Eagle's medium (DMEM) supplemented with 10% FBS); MCF7 cells were cultured in complete growth medium (Dulbecco's modified Eagle's medium (DMEM) supplemented with 10% FBS and 0.01 mg/ml human recombinant insulin (Sigma Aldrich); Namalwa and Ramos cells were cultured in complete growth medium (RPMI 1640 medium supplemented with 10% FBS); HCT116 and HT29 cells were cultured in complete growth medium (McCoy's 5a Medium supplemented with 10% FBS). For cellular degradation of BRD4 studies cells were seeded in a 12-well plate at 70-80% confluency, allowed to attach overnight, and incubated with the indicated compounds for the indicated time. When indicated, a 15-minute pretreatment with 10 μM pomalidomide, 10 μM VHL298, 10 μM Nutlin3a, 1 μM MG-132 or 1 μM Carfilzomib was performed before the addition of CURE-PROs. For washout studies, after CURE-PRO treatment, media was aspirated and incubated with complete medium for the indicated time before lysis.
WES Simple analysis was performed on WES system (ProteinSimple-Biotechne) according to the manufacturer's instructions. Total protein concentrations of cell lysates were determined by the Pierce BCA kit (Thermo Fisher). 3 μL of 0.3 μg/μL of the protein lysate was loaded onto a 12- to 230-kDa WES assay plate (ProteinSimple) where 300 nL sample was withdrawn through a capillary, subjected to electrophoretic separation of proteins by size, and followed by the simultaneous, HRP-based detection of proteins using the Anti-Rabbit Detection Module (Proteinsimple: #DM-001). The electropherograms were checked then the automatic peak detection was manually corrected if it was required.
as §2, with “1 μM-10” for “100 nM-10”, “WES ProteinSimple” for “Immunoblotting”, “59, 60,” for “64”, “61” for “65”, “BRD4” for “BRD2 and BRD3”
as §2, with “1 μM-10” for “100 nM-10”, “WES ProteinSimple” for “Immunoblotting”, “62” for “64”, “63” for “65”, “BRD4” for “BRD2 and BRD3”
HCT116 cells (3×10^6) were treated for 24 hours with the compounds solubilized in DMSO. CURE-PRO monomers were added at 10 μM each and the proteasomal inhibitors at 1 μM. Standardized protein samples were electrophoresed and imaged as described in the WES ProteinSimple section above. FIG. 68 depicts the dependence of the proteasome for CURE-PRO-mediated BRD4 degradation.

T2 sequence (P25440 whole entry): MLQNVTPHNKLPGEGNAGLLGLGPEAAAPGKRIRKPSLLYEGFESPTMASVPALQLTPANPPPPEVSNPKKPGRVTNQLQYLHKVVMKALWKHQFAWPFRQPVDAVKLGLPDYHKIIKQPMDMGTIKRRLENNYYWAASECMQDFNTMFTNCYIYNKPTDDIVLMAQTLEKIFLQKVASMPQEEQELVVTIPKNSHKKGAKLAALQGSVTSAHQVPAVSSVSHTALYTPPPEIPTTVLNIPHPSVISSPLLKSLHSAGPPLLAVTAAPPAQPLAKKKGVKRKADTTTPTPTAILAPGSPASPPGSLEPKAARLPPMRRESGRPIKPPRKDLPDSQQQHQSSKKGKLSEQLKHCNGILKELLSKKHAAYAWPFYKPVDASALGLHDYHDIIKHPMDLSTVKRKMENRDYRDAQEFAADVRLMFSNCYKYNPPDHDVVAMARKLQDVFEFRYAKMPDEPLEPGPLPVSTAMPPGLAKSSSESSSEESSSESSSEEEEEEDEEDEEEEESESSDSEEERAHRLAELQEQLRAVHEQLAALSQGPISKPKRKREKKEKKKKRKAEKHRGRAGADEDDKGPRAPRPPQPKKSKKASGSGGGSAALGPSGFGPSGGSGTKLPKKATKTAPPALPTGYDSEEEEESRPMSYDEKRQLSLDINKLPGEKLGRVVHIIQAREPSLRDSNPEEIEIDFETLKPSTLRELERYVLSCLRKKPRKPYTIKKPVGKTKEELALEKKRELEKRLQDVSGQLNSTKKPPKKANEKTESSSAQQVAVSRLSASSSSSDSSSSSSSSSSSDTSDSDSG
T3 sequence (Q15059 whole entry): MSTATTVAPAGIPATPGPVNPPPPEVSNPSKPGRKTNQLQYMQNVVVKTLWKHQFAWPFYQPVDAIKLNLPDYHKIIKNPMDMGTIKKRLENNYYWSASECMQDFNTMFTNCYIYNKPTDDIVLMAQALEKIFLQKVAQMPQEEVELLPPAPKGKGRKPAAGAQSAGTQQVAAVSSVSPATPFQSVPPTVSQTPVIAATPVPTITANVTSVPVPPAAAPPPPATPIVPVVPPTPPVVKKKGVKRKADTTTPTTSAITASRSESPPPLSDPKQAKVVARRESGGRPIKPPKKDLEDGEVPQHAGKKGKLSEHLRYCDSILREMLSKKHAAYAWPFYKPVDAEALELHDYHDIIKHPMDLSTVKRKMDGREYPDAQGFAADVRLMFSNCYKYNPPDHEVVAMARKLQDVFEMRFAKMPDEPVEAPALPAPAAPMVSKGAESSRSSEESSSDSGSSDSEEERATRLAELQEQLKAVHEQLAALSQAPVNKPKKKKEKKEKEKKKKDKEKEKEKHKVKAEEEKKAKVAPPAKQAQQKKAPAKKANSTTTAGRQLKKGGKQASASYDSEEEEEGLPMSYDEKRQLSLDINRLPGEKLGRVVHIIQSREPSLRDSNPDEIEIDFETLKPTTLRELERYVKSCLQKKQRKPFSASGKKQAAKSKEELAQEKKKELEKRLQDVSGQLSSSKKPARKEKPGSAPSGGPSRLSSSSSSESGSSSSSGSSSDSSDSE

Structure (SMILES): CCNC(=O)C[C@@H]1N=C(c2ccc(Cl)cc2)c2cc(OCCNC(=O)c3cccc(O)c3O)ccc2-n2c(C)nnc21 [BRD-N25]
- Degradation of BRD4, combination with MDM2 ligand 8310 (BRD4 [1]; Table 5, aromatic 1,2-diol BRD4 ligand + 8310): √ (A black check mark indicates efficacy of 30% to 70% or higher protein degradation)
- Degradation of BRD4, combination with MDM2 ligand 8312 (BRD4 [1]; Table 5, aromatic 1,2-diol BRD4 ligand + 8312): √ (A black check mark indicates efficacy of 30% to 70% or higher protein degradation)
- suppression of SLC19A1 expression (SLC19A1): suppressed more substantially
- loss of cellular viability (toxicity) (MV-4-11 cells): concentration-dependent loss in cellular viability; also recorded: increased toxicity
- BRD2 degradation (BRD2): BRD2 to a lesser extent; also recorded: Degradation is evident
- BRD4 degradation (BRD4 [2]; 1:1 with MDM2 ligands 8310 and 8312 (each), HCT116, 24 h, 100 nM-10 μM): caused BRD4 degradation; also recorded: Degradation is evident
- selectivity of degradation among BRD2, BRD3 and BRD4 (BRD4 [2]; with MDM2 ligands 8310 and 8312, HCT116, Western blot): some selectivity for BRD3 and BRD4 over BRD2 for 8310 is noted
- BRD3 degradation (BRD3): degradation of BRD3; also recorded: Degradation is evident
- BRD4 degradation with proteasome inhibitors (BRD4 [3]; 1:1 with 8310 at 10 μM, pre-incubation with MG-132 and Carfilzomib 1 μM, HCT116): inhibited by the pre-incubation with MG-132 and Carfilzomib; also recorded: inhibited with the proteasome inhibitors, MG-132 and Carfilzomib
- BRD4 degradation (BRD4 [3]; 1:1 with MDM2 ligand 8310, HCT116, 24 h): caused BRD4 degradation; also recorded: marked BRD4 degradation
- BRD4 degradation (BRD4 [3]; 1:1 with MDM2 ligand 8312, HCT116, 24 h): caused BRD4 degradation

Source: US20230285570A1, “THERAPEUTICALLY USEFUL CURE-PRO MOLECULES FOR E3 LIGASE MEDIATED DEGRADATION OF PROTEINS, AND METHODS OF MAKING AND USING THEM” (CORNELL UNIVERSITY, priority 2020, published 2023)
